According to patent US20250042882A1, “CERTAIN 3-AZABICYCLO[3.1.0]HEXANES AS GLP-1 RECEPTOR MODULATORS” (AstraZeneca AB, priority 2021, published 2025):

Key:
human GLP-1R receptor = target: T1, human GLP-1R receptor (Homo sapiens, UniProt P43220, L260F); assay: CHOK1 GLP-1R cAMP Assay; type: cell-based; conditions: CHO-K1 cell line stably expressing human GLP-1R (Leu260Phe variant); HTRF cAMP; agonist activity
T1 construct: expressed in transfected cells; host or cells: CHO-K1 (ATCC CCL-61)
Experimental: A cell line stably expressing the human GLP-1R receptor (NM_002062.5, including the naturally-occurring variant Leu260Phe) in a CHO-K1 (ATCC® CCL-61™) was used for assay.
GLP-1 receptor mediated agonist activity was determined in a cell-based assay measuring cyclic adenosine monophosphate (cAMP) levels in cells using Homogeneous Time-Resolved Fluorescence (HTRF) cAMP detection kit (CisBio catalog #62AM4PEC, cAMP Gs Dynamic range kit). The cAMP detection method is based on a competitive immunoassay, in which cAMP produced by the cells and cAMP labeled with the dye d2 compete for binding to a Europium-Cryptate-labeled anti-cAMP antibody. The specific HTRF signal is inversely proportional to the concentration of cAMP.
Compounds were added to individual well in 384 well-assay plates (Greiner #784076) using an Echo (LabCyte) dispenser from 10 mM stocks. Varying concentration of compounds were added to wells, and DMSO was used to normalize each well to a volume of 100 nL. A dose response curve of GLP-1(7-36)NH2 (Bachem H-6795) was included in each run. 5 μL of cAMP concentration response standards are applied in specified wells in the assay plates. Cryo-preserved cells are thawed and resuspended in assay buffer pre-heated to 37° C. (20 mM HEPES pH 7.4, 1× Hank's Balanced Salt Solution (HBSS, Life Technologies #14065) supplemented with 0.1% (w/v) bovine serum albumin (Sigma, A-7030). Cells were centrifuged at 250*g for 5 min at rt, and resuspended in room tempered assay buffer to a final density of 0.16*10^6 cell/mL, to deliver 800 cells/well. 5 μL of assay buffer with 1 mM 3-isobutyl-1-methylxanthin (IBMX; Sigma cat I-7018) was dispensed per well in assay plates using a multidrop combi (Thermo Scientific) subsequently 5 μL of cell suspension was distributed to relevant wells in the assay using a multidrop dispenser. Assay plates were incubated 20 min at rt.
Detection reagents, Europium-Cryptate-labeled anti-cAMP antibody and cAMP labeled with the dye d2, are diluted in lysis buffer, provided by the manufacturer. 5 μL of each detection reagent is supplemented to each assay well using a multidrop dispenser. Assay plates are incubated in the dark for at least one h. The HTRF signal is measured using the HTRF module (excitation: 337 nm, emission A: 665 nm and emission B: 620 nm) in Pherastar FSX (BMG Labtech).
Raw data were converted to pM cAMP using the cAMP standard curve included in each run.
Converted data were further analyzed in Genedata Screener (Genedata) and EC50 determinations were made from agonist dose-response curves analyzed with a curve fitting program using a 4-parameter logistic dose response equation (Equation y=A+((B−A)/1+((C/x)^D))) where A is no stimulation, B is full stimulation, C is the EC50 and D is the Hill slope). The percent effect was determined relative to a saturating concentration of a full GLP-1R agonist (GLP-1(7-36)NH2 has 100% effect in this assay setup).

GLP-1R = target: T2, GLP-1R (Homo sapiens, UniProt P43220); assay: EndoC cAMP Accumulation Assay; type: cell-based; conditions: EndoC-βH1 human pancreatic β cell line; HTRF cAMP accumulation
T2 construct: host or cells: EndoC-βH1 human pancreatic beta cell line
Source text: EndoC cAMP Accumulation Assay
A HTRF cAMP assay (cAMP Gs dynamic kit; CisoBio Cat #62AM4PEJ) was used to identify agonists of GLP-1R in a pancreatic insulinoma cell line (EndoC-⊕H1). […] EndoC-PHlcells have detectable GLP-1R messenger ribonucleic acid (mRNA) as detected by quantitative polymerase chain reaction (qPCR). […] The EndoC-PH1 cell line is a valid model of human beta cells and applicable for screenings to identify novel drug target candidates (Mol. Metab., 2018, 8, 144-157). CisBio HTRF cAMP kits are based on a competitive immunoassay using cryptate-labelled anti-cAMP antibody and d2-labeled cAMP. The detection kit is intended for the direct quantitative determination of cAMP. The specific signal (i.e. energy transfer) is inversely proportional to the concentration of cAMP in the standard or sample. Test compounds (10 mM in DMSO) were diluted into assay buffer (HBSS (Sigma #H8264) supplemented with 25 mM HEPES (Gibco #15630, pH 7.4), 0.1% BSA (Sigma #A3059) and 0.5 mM IBMX (Sigma #I7018) included fresh on the day of the assay) into 96 well U-bottom plates (Greiner #650201). Diluted compounds were transferred to ECHO source polypropylene plates (Labcyte #P-05525) and dose response curves were dispensed acoustically using ECHO 550 into black shallow-well u-bottom 384-well HTRF Assay Plates (Corning 4514).
Cryovials of EndoC-H1 (supplied at 1×10e^7 cells/vial) were used directly for screening. The cryovials and were removed from N2(l) and thawed rapidly in a 37° C. water bath. The cells were resuspended in assay buffer and centrifuged at 300 g for 5 min. Cells were resuspended in assay buffer at the appropriate concentration, typically at 12e5 cells per mL (3000 cells per well, dependent on cell batch) and 2.5 μL diluted cells were added to all wells of destination plate by Multidrop combi reagent dispenser (Thermofisher). The plates were incubated at rt for 30 min. The assay was stopped by adding 2.5 μL anti-cAMP cryptate solution to all wells and 2.5 μL cAMP-d2 solution (both diluted 1:20 in lysis buffer) to columns 1-22 by Combi drop. A volume of 2.5 μL cAMP-d2 solution was added to wells E23 to P24 and 2.5 μL lysis buffer added to wells A23 to D24 by multichannel pipette. The plates were incubated at rt for 1 h and read on an Envision plate reader using excitation wavelength of 320 mn and emission of 590 nm and 660 nm.
Raw data from Envision is converted to % DeltaF according to the manufacturer's instructions. Dose response curves are analysed via 4-Parameter Logistical Analysis and assay plate Z′ values obtained. Samples are graphed as percentage (%) activation plots compared to GIP (1-42, Bachem H-5645) with assay window defined by negative control as basal cell cAMP levels and positive control are defined by maximum GIP (82.5 nM) signal. GLP-1 (7-36 amide, Bachem H-6795) dose response curve was included on all plates.

T1 sequence (P43220 24-463 L260F): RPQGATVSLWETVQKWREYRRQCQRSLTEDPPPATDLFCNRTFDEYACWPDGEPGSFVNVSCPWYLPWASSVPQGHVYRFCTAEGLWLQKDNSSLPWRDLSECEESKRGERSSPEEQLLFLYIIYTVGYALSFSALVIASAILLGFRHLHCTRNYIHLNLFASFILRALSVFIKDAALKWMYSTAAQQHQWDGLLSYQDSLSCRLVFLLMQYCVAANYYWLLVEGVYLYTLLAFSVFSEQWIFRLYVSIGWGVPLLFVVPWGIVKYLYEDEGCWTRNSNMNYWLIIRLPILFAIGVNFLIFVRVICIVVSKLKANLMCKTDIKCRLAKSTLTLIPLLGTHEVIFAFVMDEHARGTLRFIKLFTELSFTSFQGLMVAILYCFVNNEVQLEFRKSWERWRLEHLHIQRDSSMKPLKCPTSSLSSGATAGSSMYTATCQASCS
T2 sequence (P43220 24-463): as the sequence (P43220 24-463 L260F) above, with F237L counted along it

EC50 (human GLP-1R receptor) [nM] | EC50 (GLP-1R) [nM] | Compound
24 | 16 | C[C@@]1(c2ccc(Cl)cn2)Oc2cccc([C@H]3[C@@H]4CN(Cc5nc6c(Cl)cc(C(=O)O)cc6n5CC5CCO5)C[C@@H]43)c2O1 (relative stereo) [Example 5, 4-Chloro-2-(((1R,5S,6R)-6-((R*)-2-(5-chloropyridin-2-yl)-2-methylbenzo[d][1,3]dioxol-4-yl)-3-azabicyclo[3.1.0]hexan-3-yl)methyl)-1-(((S)-oxetan-2-yl)methyl)-1H-benzo[d]imidazole-6-carboxylic acid]
40 | 58 | C[C@@]1(c2ccc(Cl)cn2)Oc2cccc([C@H]3[C@@H]4CN(Cc5nc6c(F)cc(C(=O)O)cc6n5C[C@@H]5CCO5)C[C@@H]43)c2O1 (relative stereo) [Example 9, 2-(((1R,5S,6R)-6-((R*)-2-(5-Chloropyridin-2-yl)-2-methylbenzo[d][1,3]dioxol-4-yl)-3-azabicyclo[3.1.0]hexan-3-yl)methyl)-4-fluoro-1-(((S)-oxetan-2-yl)methyl)-1H-benzo[d]imidazole-6-carboxylic acid]
61 | 57 | C[C@@]1(c2ccc(C#N)cc2F)Oc2cccc([C@H]3[C@@H]4CN(Cc5nc6c(F)cc(C(=O)O)cc6n5C[C@@H]5CCO5)C[C@@H]43)c2O1 (relative stereo) [Example 11, 2-((1R,5S,6R)-6-((R*)-2-(4-Cyano-2-fluorophenyl)-2-methylbenzo[d][1,3]dioxol-4-yl)-3-azabicyclo[3.1.0]hexan-3-yl)methyl)-4-fluoro-1-(((S)-oxetan-2-yl)methyl)-1H-benzo[d]imidazole-6-carboxylic acid]
8.1 | 4.1 | CCn1cncc1Cn1c(CN2C[C@@H]3[C@H](C2)[C@H]3c2cccc3c2O[C@](C)(c2ccc(Cl)cn2)O3)nc2c(OC)cc(C(=O)O)cc21 (relative stereo) [Example 13, 2-((1R,5S,6s)-6-(R*)-2-(5-Chloropyridin-2-yl)-2-methylbenzo[d][1,3]dioxol-4-yl)-3-azabicyclo[3.1.0]hexan-3-yl)methyl)-1-((1-ethyl-1H-imidazol-5-yl)methyl)-4-methoxy-1H-benzo[d]imidazole-6-carboxylic acid]
26 | 5.9 | CCn1cncc1Cn1c(CN2C[C@@H]3[C@H](C2)[C@H]3c2cccc3c2O[C@](C)(c2ccc(Cl)cn2)O3)nc2c(F)cc(C(=O)O)cc21 (relative stereo) [Example 14, 2-((1R,5S,6s)-6-(R*)-2-(5-Chloropyridin-2-yl)-2-methylbenzo[d][1,3]dioxol-4-yl)-3-azabicyclo[3.1.0]hexan-3-yl)methyl)-1-((1-ethyl-1H-imidazol-5-yl)methyl)-4-fluoro-1H-benzo[d]imidazole-6-carboxylic acid]
8.6 | 3 | CCn1cncc1Cn1c(CN2C[C@@H]3[C@H](C2)[C@H]3c2cccc3c2O[C@](C)(c2ccc(Cl)cc2F)O3)nc2c(F)cc(C(=O)O)cc21 (relative stereo) [Example 15, 2-((1R,5S,6s)-6-((R*)-2-(4-Chloro-2-fluorophenyl)-2-methylbenzo[d][1,3]dioxol-4-yl)-3-azabicyclo[3.1.0]hexan-3-yl)methyl)-1-((1-ethyl-1H-imidazol-5-yl)methyl)-4-fluoro-1H-benzo[d]imidazole-6-carboxylic acid]
280 | 350 | COc1cc(C(=O)O)cc2c1nc(CN1C[C@@H]3[C@H](C1)[C@H]3c1cccc3c1O[C@](C)(c1ccc(Cl)cn1)O3)n2CC1CCO1 (single isomer, unassigned) [Example 4a, 2-(((1R,5S,6R)-6-((R*)-2-(5-Chloropyridin-2-yl)-2-methylbenzo[d][1,3]dioxol-4-yl)-3-azabicyclo[3.1.0]hexan-3-yl)methyl)-4-methoxy-1-(((S)-oxetan-2-yl)methyl)-1H-benzo[d]imidazole-6-carboxylic acid]
61 | 14 | COc1cc(C(=O)O)cc2c1nc(CN1C[C@@H]3[C@H](C1)[C@H]3c1cccc3c1O[C@](C)(c1ccc(Cl)cn1)O3)n2CC1CCO1 (single isomer, unassigned) [Example 4b, 2-(((1R,5S6R)-6-((R*)-2-(5-Chloropyridin-2-yl)-2-methylbenzo[d][1,3]dioxol-4-yl)-3-azabicyclo[3.1.0]hexan-3-yl)methyl)-4-methoxy-1-(((S)-oxetan-2-yl)methyl)-1H-benzo[d]imidazole-6-carboxylic acid]

Compound | EC50 (human GLP-1R receptor) [nM] | EC50 (GLP-1R) [nM]
2-(((1R,5S,6R)-6-((R*)-2-(5-Chloropyridin-2-yl)-5-fluoro-2-methylbenzo[d][1,3]dioxol-4-yl)-3-azabicyclo[3.1.0]hexan-3-yl)methyl)-4-fluoro-1-(((S)-oxetan-2-yl)methyl)-1H-benzo[d]imidazole-6-carboxylic acid [Example 10b] | 680 | 1900
4-Chloro-2-(((1R,5S,6R)-6-((R*)-2-(5-chloropyridin-2-yl)-5-fluoro-2-methylbenzo[d][1,3]dioxol-4-yl)-3-azabicyclo[3.1.0]hexan-3-yl)methyl)-1-(((S)-oxetan-2-yl)methyl)-1H-benzo[d]imidazole-6-carboxylic acid [Example 8a] | 150 | 280
4-Chloro-2-(((1R,5S,6R)-6-((R*)-2-(5-chloropyridin-2-yl)-5-fluoro-2-methylbenzo[d][1,3]dioxol-4-yl)-3-azabicyclo[3.1.0]hexan-3-yl)methyl)-1-(((S)-oxetan-2-yl)methyl)-1H-benzo[d]imidazole-6-carboxylic acid [Example 8b] | 8.2 | 9.6
